What was measured:
Green foxtail [1] = assay: Test D green foxtail; type: in vivo; details: Preemergence, 0 to 100 scale
Method in brief: (§1)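 Seeds were sown in greenhouse pots, one species per pot or compartment. Compounds were in a non-phytotoxic solvent mixture with surfactant; preemergence applications went on the sandy loam surface within one day of planting. Injury was rated visually after 14 to 21 days, 0 (none) to 100 (complete control).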

pitted morningglory = assay: Test D pitted morningglory; type: in vivo, Ipomoea lacunosa; details: Preemergence, 0 to 100 scale
Method in brief: as §1

bermuda-grass = assay: Test D bermudagrass; type: in vivo, Cynodon dactylon; details: Preemergence, 0 to 100 scale
Method in brief: as §1

large crabgrass = assay: Test D large crabgrass; type: in vivo, Digitaria sanguinalis; details: Preemergence, 0 to 100 scale
Method in brief: as §1

guineagrass = assay: Test D guineagrass; type: in vivo, Panicum maximum; details: Preemergence, 0 to 100 scale
Method in brief: as §1

purple nutsedge = assay: Test D purple nutsedge; type: in vivo, Cyperus rotundus; details: Preemergence, 0 to 100 scale
Method in brief: as §1

common groundsel = assay: Test D common groundsel; type: in vivo, Senecio vulgaris; details: Preemergence, 0 to 100 scale
Text: Seeds, tubers, or plant parts of Alexandergrass (Brachiaria plantaginea), bermuda-grass (Cynodon dactylon), common pursiane (Portulaca oleracea), common ragweed (Ambrosia elatior), common groundsel (Senecio vulgaris), dallisgrass (Paspalum dilatatum), goosegrass (Eleusine indica), guineagrass (Panicum maximum), itchgrass (Rottboellia exaltata), Johnson grass (Sorghum halepense), large crabgrass (Digitaria sanguinalis), pitted morningglory (Ipomoea lacunosa), purple nutsedge (Cyperus rotundus), sandbur (Cenchrus echinatus), sourgrass (Trichachne insularis), Spanishneedles (Bidens bipinnata), surinam grass (Brachiaria decumbens) and tall mallow (Malva sylvestris) were planted into greenhouse pots of flats containing greenhouse planting medium. Plant species were grown in separate pots or individual compartments. Preemergence applications were made within one day of planting the seed or plant part.
Test chemicals were formulated in a non-phytotoxic solvent mixture which included a surfactant and applied preemergence to the surface of the pot containing seeds in a sandy loam soil. Untreated control pots and treated pots were placed in the greenhouse for growth and visually evaluated for injury 14 to 21 days after herbicide application. Plant response ratings, summarized in Table C, are based on a 0 to 100 scale where 0 is no injury and 100 is complete control. A dash (−) response means no test result.

itchgrass = assay: Test D itchgrass; type: in vivo, Rottboellia exaltata; details: Preemergence, 0 to 100 scale
Method in brief: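 Scoring used a 0–100 visual injury scale, with 0 meaning no effect and 100 complete control, assessed 14–21 days after application alongside untreated pots. Preemergence treatments went onto sandy loam surfaces of separately potted seeds within a day of sowing.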

common ragweed = assay: Test D common ragweed; type: in vivo, Ambrosia elatior; details: Preemergence, 0 to 100 scale
Method in brief: as §1

dallisgrass = assay: Test D dallisgrass; type: in vivo, Paspalum dilatatum; details: Preemergence, 0 to 100 scale
Method in brief: as §1

common pursiane = assay: Test D common purslane; type: in vivo, Portulaca oleracea; details: Preemergence, 0 to 100 scale
Method in brief: as §1

Green foxtail [2] = assay: Test D green foxtail; type: in vivo
Method in brief: as §1

Spanishneedles = assay: Test D Spanishneedles; type: in vivo, Bidens bipinnata; details: Preemergence, 0 to 100 scale
Method in brief: as §1

surinam grass = assay: Test D surinam grass; type: in vivo, Brachiaria decumbens; details: Preemergence, 0 to 100 scale
Method in brief: as §1

[3] = Rate 16 g/ha, 0 no injury, 100 complete control
[4] = Rate 32 g/ha, 0 no injury, 100 complete control
[5] = Rate 64 g/ha, 0 no injury, 100 complete control
[6] = Rate 64 g/ha, Preemergence; 0 to 100 scale, 0 no injury, 100 complete control

CC(C)N(C(=O)n1oc(=O)n(C2CCCCC2)c1=O)c1ccccc1 [Compound 112]
Plant response rating, Green foxtail (Green foxtail [1]; Rate 250 g/ha): 98 | Plant response rating, Green foxtail (Green foxtail [1]; Rate 500 g/ha): 0 | Plant response rating, P. morninglory (pitted morningglory; [3]): 0 | Plant response rating, P. morninglory (pitted morningglory; [4]): 0 | Plant response rating, P. morninglory (pitted morningglory; [5]): 0 | Plant response rating, P. morninglory (pitted morningglory; Rate 250 g/ha): 0 | Plant response rating, P. morninglory (pitted morningglory; Rate 500 g/ha): 10 | Plant response rating, Bermudagrass (bermuda-grass; [3]): 60 | Plant response rating, Bermudagrass (bermuda-grass; [4]): 75 | Plant response rating, Bermudagrass (bermuda-grass; [5]): 85 | Plant response rating, Bermudagrass (bermuda-grass; Rate 250 g/ha): 98 | Plant response rating, Bermudagrass (bermuda-grass; Rate 500 g/ha): 100 | Plant response rating, Large crabgrass (large crabgrass; [3]): 10 | Plant response rating, Large crabgrass (large crabgrass; [4]): 10 | Plant response rating, Large crabgrass (large crabgrass; [5]): 10 | Plant response rating, Large crabgrass (large crabgrass; Rate 250 g/ha): 100 | Plant response rating, Large crabgrass (large crabgrass; Rate 500 g/ha): 100 | Plant response rating, Guineagrass (guineagrass; [3]): 0 | Plant response rating, Guineagrass (guineagrass; [4]): 0 | Plant response rating, Guineagrass (guineagrass; [5]): 40 | Plant response rating, Guineagrass (guineagrass; Rate 250 g/ha): 90 | Plant response rating, Guineagrass (guineagrass; Rate 500 g/ha): 100 | Plant response rating, Purple nutsedge (purple nutsedge; [3]): 0 | Plant response rating, Purple nutsedge (purple nutsedge; [4]): 0 | Purple nutsedge plant response rating (purple nutsedge; [5]): 0 | Plant response rating, Purple nutsedge (purple nutsedge; Rate 250 g/ha): 0 | Plant response rating, Purple nutsedge (purple nutsedge; Rate 500 g/ha): 40 | Plant response rating, Com. groundsel (common groundsel; [3]): 0 | Plant response rating, Com. groundsel (common groundsel; [4]): 0 | Plant response rating, Com. groundsel (common groundsel; [5]): 0 | Plant response rating, Com. groundsel (common groundsel; Rate 250 g/ha): 0 | Plant response rating, Com. groundsel (common groundsel; Rate 500 g/ha): 10 | Plant response rating, Itchgrass (itchgrass; [3]): 0 | Plant response rating, Itchgrass (itchgrass; [4]): 0 | Plant response rating, Itchgrass (itchgrass; [5]): 0 | Plant response rating, Itchgrass (itchgrass; Rate 250 g/ha): 0 | Plant response rating, Itchgrass (itchgrass; Rate 500 g/ha): 80 | Plant response rating, C. ragweed (common ragweed; [3]): 0 | Plant response rating, C. ragweed (common ragweed; [4]): 0 | Plant response rating, C. ragweed (common ragweed; [5]): 0 | Plant response rating, C. ragweed (common ragweed; Rate 250 g/ha): 0 | Plant response rating, C. ragweed (common ragweed; Rate 500 g/ha): 0 | Plant response rating, Dallisgrass (dallisgrass; [3]): 30 | Plant response rating, Dallisgrass (dallisgrass; [4]): 65 | Plant response rating, Dallisgrass (dallisgrass; [5]): 70 | Plant response rating, Dallisgrass (dallisgrass; Rate 250 g/ha): 100 | Plant response rating, Dallisgrass (dallisgrass; Rate 500 g/ha): 100 | Plant response rating, C. purslane (common pursiane; [3]): 0 | Plant response rating, C. purslane (common pursiane; [4]): 0 | Plant response rating, C. purslane (common pursiane; [5]): 0 | Plant response rating, C. purslane (common pursiane; Rate 250 g/ha): 0 | Plant response rating, C. purslane (common pursiane; Rate 500 g/ha): 0 | Plant response rating, Green foxtail (Green foxtail [2]; Preemergence; Rate 16 g/ha; 0 to 100 scale, 0 no injury, 100 complete control): 0 | Plant response rating, Green foxtail (Green foxtail [2]; Preemergence; Rate 32 g/ha; 0 to 100 scale, 0 no injury, 100 complete control): 0 | Plant response rating, Green foxtail (Green foxtail [2]; Rate 16 g/ha; Preemergence; 0 to 100 scale, 0 no injury, 100 complete control): 0 | Plant response rating, Green foxtail (Green foxtail [2]; Rate 32 g/ha; Preemergence; 0 to 100 scale, 0 no injury, 100 complete control): 98 | Green foxtail plant response rating (Green foxtail [2]; [6]): 85 | Plant response rating, Green foxtail (Green foxtail [2]; [6]): 85 | Plant response rating, Green foxtail (Green foxtail [2]; Rate 250 g/ha; Preemergence; 0 to 100 scale): 98 | Plant response rating, Green foxtail (Green foxtail [2]; Rate 500 g/ha, Preemergence; 0 to 100 scale): 0 | Plant response rating, Spanishneedles (Spanishneedles; [3]): 0 | Plant response rating, Spanishneedles (Spanishneedles; [4]): 0 | Spanishneedles plant response rating (Spanishneedles; [5]): 0 | Plant response rating, Spanishneedles (Spanishneedles; Rate 500 g/ha): 10 | Plant response rating, Surinam grass (surinam grass; [3]): 0 | Plant response rating, Surinam grass (surinam grass; [4]): 0 | Surinam grass plant response rating (surinam grass; [5]): 0 | Plant response rating, Surinam grass (surinam grass; Rate 250 g/ha): 0 | Plant response rating, Surinam grass (surinam grass; Rate 500 g/ha): 98

— patent US6737383B1, “Herbicidal oxadiazolidines” (priority 1999, dated 2004)
